Assay results: article PMC10724246 (Nature Communications, 2023)
No end group written: not given here.

What was measured:
yeast αWD40 domain = details: published value, Supplementary Table S6; ref Ma & Goldberg, EMBO J 2013; cited from earlier work
yeast β'WD40 domain = details: published value, Supplementary Table S6; ref Ma & Goldberg, EMBO J 2013; cited from earlier work
WD40 = details: peer review response; ref Dey et al Communications Biology 2022; cited from earlier work
Source text: page 26: dynamics/conformations of the tail. I see no need to perform experiments, but maybe this has been done (or other mutants been tested meanwhile)? Please comment at least! Response 3.21: We thank the reviewer for raising this point. We reported this BLI experiment in our previous publication, Dey et al Communications Biology 2022. […]

αWD40 domain (α-COPI) = biological target: T1, αWD40 domain (α-COPI) (Schizosaccharomyces pombe, UniProt Q96WV5); experiment: Biolayer interferometry (BLI) of S tail peptides with wild-type αWD40; assay type: binding, S. pombe
T1 construct: strep-tag (C); made in house; host or cells: Expi293 cells
T1 sequence (Q96WV5 1-327 limits assumed): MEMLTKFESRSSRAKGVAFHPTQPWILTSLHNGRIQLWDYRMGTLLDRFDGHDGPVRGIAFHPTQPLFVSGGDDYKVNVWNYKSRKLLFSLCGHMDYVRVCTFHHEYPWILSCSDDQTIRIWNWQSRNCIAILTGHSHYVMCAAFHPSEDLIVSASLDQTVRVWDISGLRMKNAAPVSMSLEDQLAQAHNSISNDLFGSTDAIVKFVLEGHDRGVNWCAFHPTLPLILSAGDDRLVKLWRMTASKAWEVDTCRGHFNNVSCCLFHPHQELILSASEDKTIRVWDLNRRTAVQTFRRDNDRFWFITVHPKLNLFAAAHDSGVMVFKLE
Procedure: Recombinant expression and purification of S. pombe αWD40 and S. cerevisiae β‘WD40 domains (both wild type and mutants) were carried out as described[43],[72],[75]. Briefly, αWD40 with a C-terminal strep-tag was expressed and purified from Expi293 cells using polyethyleneimine (PEI). The clarified cell lysate was subjected to affinity chromatography followed by size-exclusion chromatography (SEC) on a preparative grade Superdex-75 column.
BLI assays with biotinylated S peptides from Biomatik (USA) and purified coatomer WD40 domains were carried out as described. […] S peptides were immobilized on streptavidin (SA) biosensors (FortéBio, USA). Measurements were performed on the Octet RED96 system (FortéBio, USA). Data acquisition and data analysis were performed using Data Acquisition 11.1 suite and FortéBio Data Analysis 11.1 software suite respectively. All experiments were performed at 25 °C and 1000 rpm shake speed. Appropriate sensor and loading controls were applied.

[1] = biological target: T2, alpha-COP WD40 (Schizosaccharomyces pombe), Q96WV5; details: modification not given
T2 chain: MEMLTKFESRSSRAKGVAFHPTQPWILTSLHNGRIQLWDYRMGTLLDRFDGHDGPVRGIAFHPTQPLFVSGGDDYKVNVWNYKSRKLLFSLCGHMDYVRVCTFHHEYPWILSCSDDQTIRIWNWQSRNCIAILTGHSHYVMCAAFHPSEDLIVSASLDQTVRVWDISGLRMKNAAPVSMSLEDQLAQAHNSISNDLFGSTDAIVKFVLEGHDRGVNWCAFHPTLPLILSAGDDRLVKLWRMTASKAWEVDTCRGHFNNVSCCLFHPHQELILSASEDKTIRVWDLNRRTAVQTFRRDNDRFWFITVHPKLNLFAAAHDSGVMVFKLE

[2] = immobilized biotinylated peptide, αWD40 analyte, pH 6.5, 25 °C
[3] = immobilized biotinylated peptide, αWD40 analyte, pH 7.0, 25 °C

R-R-S-F-I-D-E-K-K-M-P (RRSFIDEKKMP)
Kd (yeast αWD40 domain): 64.5 ± 5.4 µM
Kd (yeast β'WD40 domain): 49 ± 2.2 µM

GVKLHYA
WD40 binding in BLI assays (in words) (WD40): modest enhancement

GVKLHYE-NH2 [GVKLHYE (amidated)]
koff (αWD40 domain (α-COPI); [2]): 0.88 ± 0.02 s⁻¹
kon (αWD40 domain (α-COPI); [2]): 706.2 ± 56.3 10^3/Ms

GVKLHYT (amidated)
binding to αWD40 (in words) (αWD40 domain (α-COPI); Fig. 2M, listed as amidated wild-type S heptapeptide): Loss of αWD40 binding

CC(C)C[C@H](NC(=O)[C@H](CCCCN)NC(=O)[C@@H](NC(=O)CNC(=O)[C@H](CCCCN)NC(=O)[C@H](CC(C)C)NC(=O)[C@@H](NC(=O)[C@@H]1CCCN1C(=O)[C@H](CCC(=O)O)NC(=O)[C@H](CO)NC(=O)[C@H](CC(=O)O)NC(=O)[C@H](CC(=O)O)NC(=O)[C@H](CCC(=O)O)NC(=O)[C@H](CC(=O)O)NC(=O)[C@H](Cc1ccccc1)NC(=O)[C@H](CCCCN)NC(=O)[C@H](CS)NC(=O)[C@H](CS)NC(=O)CCCC[C@@H]1SC[C@@H]2NC(=O)N[C@@H]21)C(C)C)C(C)C)C(=O)N[C@@H](Cc1c[nH]cn1)C(=O)N[C@@H](Cc1ccc(O)cc1)C(=O)N[C@@H](CCC(=O)O)C(=O)O
Kd (αWD40 domain (α-COPI); Equilibrium KD, immobilized biotinylated peptide, αWD40 analyte, pH 7.0, 25 °C): 0.1 ± 0.002 µM
koff (αWD40 domain (α-COPI); [2]): 0.0037 ± 0.0002 s⁻¹
kon (αWD40 domain (α-COPI); [2]): 59.9 ± 1.3 10^3/Ms
koff (αWD40 domain (α-COPI); [3]): 0.003 ± 0.0002 s⁻¹
kon (αWD40 domain (α-COPI); [3]): 60.8 ± 1.3 10^3/Ms

GVKLHYT [Spike tail heptapeptide]
Kd [1]: 1.4 µM
